Experimental data taken from patent US4061630A, “7-Substituted-ureido-3-carbamoyloxymethyl cephalosporin antibiotics” (Eli Lilly and Company, priority 1976, dated 1977).
In brackets after ≈: the same amount, converted by molar mass.

Legend:
Shigella sp. = test: in vitro antibiotic activity by the Gradient Plate method, Shigella; format: cell-based; details: read-out: Minimum Inhibitory Concentration vs. Shigella sp.
Method: (§1) The antibiotic activity for these compounds is illustrated by the activity data in the following Table II. In the Table, the compounds designated by the groups R, R1 and R2 have reference to the following formula I [drawing 35] and the in vitro activity was determined by the Gradient Plate method.

Escherichia coli = test: in vitro antibiotic activity by the Gradient Plate method, E. coli; format: cell-based; details: read-out: Minimum Inhibitory Concentration vs. Escherichia coli
Method: as §1

Klebsiella pneumoniae = test: in vitro antibiotic activity by the Gradient Plate method, Klebsiella; format: cell-based; details: read-out: Minimum Inhibitory Concentration vs. Klebsiella pneumoniae
Method: as §1

Enterobacter aerogenes = test: in vitro antibiotic activity by the Gradient Plate method, Enterobacter; format: cell-based; details: Klebsiella aerogenes, read-out: Minimum Inhibitory Concentration vs. Enterobacter aerogenes
Method: as §1

Salmonella heidelberg = test: in vitro antibiotic activity by the Gradient Plate method, Salmonella; format: cell-based; details: Salmonella enterica, read-out: Minimum Inhibitory Concentration vs. Salmonella heidelberg
Method: as §1

Pseudomonas aeruginosa = test: in vitro antibiotic activity by the Gradient Plate method, Pseudomonas; format: cell-based; details: read-out: Minimum Inhibitory Concentration vs. Pseudomonas aeruginosa
Method: as §1

Serratia marcescens = test: in vitro antibiotic activity by the Gradient Plate method, Serratia; format: cell-based; details: read-out: Minimum Inhibitory Concentration vs. Serratia marcescens
Method: as §1

Titration 66 percent DMF = format: physicochemical; details: 66% dmf
Source text: IR (KBr): 1770 cm^-1 (β-lactam carbonyl) U.V. (methanol): γ max 278 (ε17,921) Titration 66 percent DMF: pKa 4.98.

Row | SMILES | MIC (Shigella sp.) [µg/mL] | MIC (Escherichia coli) [µg/mL] | MIC (Klebsiella pneumoniae) [µg/mL] | MIC (Enterobacter aerogenes) [µg/mL] | MIC (Salmonella heidelberg) [µg/mL] | MIC (Pseudomonas aeruginosa) [µg/mL] | MIC (Serratia marcescens) [µg/mL] | pKa (Titration 66 percent DMF)
1 | CNC(=O)N(C)C(=O)NC(C(=O)NC1C(=O)N2C(C(=O)O)=C(COC(N)=O)CSC12)c1ccc(O)cc1 (stereo not drawn) | 4.5 (≈ 8.39 µM) | 10 (≈ 18.6 µM) | 10 (≈ 18.6 µM) | 5.5 (≈ 10.3 µM) | 5 (≈ 9.32 µM) | 13.5 (≈ 25.2 µM) | 160 (≈ 298 µM) | 
2 | CNC(=O)OCC1=C(C(=O)O)N2C(=O)C(NC(=O)C(NC(=O)N(C)C(=O)NC)c3ccccc3)C2SC1 (stereo not drawn) [7-[α-(3-Methylcarbamoyl-3-methyl-1-ureido)-α-phenylacetamido]-3-N-methylcarbamoyloxymethyl-3-cephem-4-carboxylic acid] | 5.5 (≈ 10.3 µM) | 15.5 (≈ 29 µM) | 7 (≈ 13.1 µM) | 19.5 (≈ 36.5 µM) | 8.5 (≈ 15.9 µM) | 30 (≈ 56.1 µM) | 42.5 (≈ 79.5 µM) | 
3 | CN(C(=O)C=Cc1ccccc1)C(=O)NC(C(=O)NC1C(=O)N2C(C(=O)O)=C(COC(N)=O)CSC12)c1ccccc1 (stereo not drawn) | 1 (≈ 1.68 µM) | 5.5 (≈ 9.27 µM) | 0.3 (≈ 0.505 µM) | 8 (≈ 13.5 µM) | 6.5 (≈ 10.9 µM) | 21.8 (≈ 36.7 µM) | 8 (≈ 13.5 µM) | 
4 | CNC(=O)NC(=O)NC(C(=O)NC1C(=O)N2C(C(=O)O)=C(COC(N)=O)CSC12)c1ccccc1 (stereo not drawn) | 21.5 (≈ 42.4 µM) | 51.3 (≈ 101 µM) | 35 (≈ 69.1 µM) | 65 (≈ 128 µM) | 30 (≈ 59.2 µM) | 22.8 (≈ 45 µM) | > 200 | 
5 | CNC(=O)N(C)C(=O)NC(C(=O)NC1C(=O)N2C(C(=O)O)=C(COC(N)=O)CSC12)c1ccccc1 (stereo not drawn) | 7 (≈ 13.4 µM) | 17.8 (≈ 34.2 µM) | 7.8 (≈ 15 µM) | 19.5 (≈ 37.5 µM) | 8.5 (≈ 16.3 µM) | 18.3 (≈ 35.2 µM) | 67.5 (≈ 130 µM) | 
6 | CNC(=O)NC(=O)NC(C(=O)NC1C(=O)N2C(C(=O)O)=C(COC(N)=O)CSC12)c1ccc(O)cc1 (stereo not drawn) | 17.3 (≈ 33.1 µM) | 27.2 (≈ 52.1 µM) | 100 (≈ 191 µM) | 18.5 (≈ 35.4 µM) | 12.5 (≈ 23.9 µM) | 33.3 (≈ 63.7 µM) | > 200 | 
7 | CS(=O)(=O)N1CCN(C(=O)NC(C(=O)NC2C(=O)N3C(C(=O)O)=C(COC(N)=O)CSC23)c2ccc(O)cc2)C1=O (stereo not drawn) | 4.3 (≈ 7.02 µM) | 10 (≈ 16.3 µM) | 5.5 (≈ 8.98 µM) | 10 (≈ 16.3 µM) | 4.8 (≈ 7.84 µM) | 47.5 (≈ 77.5 µM) | 100 (≈ 163 µM) | 
8 | NC(=O)OCC1=C(C(=O)O)N2C(=O)C(NC(=O)C(NC(=O)NC(=O)c3ccco3)c3ccc(O)cc3)C2SC1 (stereo not drawn) | 12.5 (≈ 22.3 µM) | 17.2 (≈ 30.7 µM) | 16 (≈ 28.6 µM) | 17.2 (≈ 30.7 µM) | 16 (≈ 28.6 µM) | 10 (≈ 17.9 µM) | 120 (≈ 214 µM) | 
9 | CN(C(=O)C=Cc1ccccc1)C(=O)N[C@@H](C(=O)NC1C(=O)N2C(C(=O)O)=C(COC(N)=O)CSC12)c1ccccc1 (stereo partly drawn) [Example 8, 7-[D-α-(3-Cinnamoyl-3-methyl-1-ureido)-α-phenylacetamido]-3-carbamoyloxymethyl-3-cephem-4-carboxylic acid] |  |  |  |  |  |  |  | 4.98
